Data published in US20240173231A1, “COSMETIC SKIN CARE COMPOSITION” (Conopco, Inc., d/b/a UNILEVER, priority 2021, published 2024).
Marks after values point to notes of the source that are not given here.

Tests used:
Assay type in all cases: cell-based, human
procollagen-I = test: Procollagen type 1 C-peptide (PIP) EIA on media of dermal fibroblasts on soft hydrogel; settings: for Procollagen: day 6; for Effect on procollagen-I synthesis in human dermal fibroblasts, in words: substrates mimicking the biomechanical properties of skin
Protocol: Since YAP activity is highly dependent on substrate rigidity it was necessary to develop and perform assays on substrates with tunable mechanical properties.
Primary human dermal fibroblasts (P3) are plated at 31,579 cells per cm2 into 24-well […] collagen coated hydrogel plates in 1 ml 2% fetal bovine serum in Dulbecco's Modified Eagles Media (DMEM) and maintained 24 hours in a cell culture incubator at 5% carbon dioxide. The cells were washed twice with Dulbecco's Phosphate Buffered Saline then 1 ml of DM EM supplemented with 0.6% fatty acid free bovine serum albumin. The cells were maintained for 24 hours in a cell culture incubator at 5% carbon dioxide.
Two hundred microliter of media was removed from each well. To each well were added 100 ul of 500 ug per ml ascorbic acid in DMEM supplemented with 0.6% fatty acid free bovine serum albumin. Test materials were diluted to 10X final concentration in DMEM supplemented with 0.6% fatty acid free bovine serum albumin or PBS supplemented with 0.1% fatty acid free bovine serum albumin and 100 ul dosed to duplicate wells. The cells/plates were incubated for 3 days at 37° C., 5% CO2 in a cell culture incubator. On day 3 the media was removed from the wells and 900u1 DMEM supplemented with 0.6% fatty acid free bovine serum albumin plus 50 ug/ml ascorbic acid. The treatments were added as described above. On day 6 after the start of treatment remove 100 ul of the media from each well for the determination of the level of procollagen.
The amount of procollagen in the media samples was determined using the Takara Bio Procollagen type 1 C-peptide (PIP) detection EIA assay. The assay was run following the manufacturer's instructions as following—100 ul of the reconstituted antibody-POD conjugate to the wells of the assay for the number required for the media samples and the standard curve. The procollagen standard solution was 2-fold serial diluted using sample diluent to generate a standard curve of 640, 320, 160, 80, 40, 20, 10 and 0 ng/ml procollagen. The media samples were diluted 1/20 with sample diluent. Twenty ul of the standard curve dilutions were added to the wells of the assay plate in duplicate. The 20 ul media dilutions in sample diluent were added to the wells of the assay plate in singlet. The plate was incubated for 3 hours at 37° C., washed 4 times with phosphate buffered saline wash buffer and tapped to remove all residual wash buffer. One hundred ul of substrate solution (TMBZ) was added to each well and incubate 15 minutes. One hundred ul of stop solution was added to each well, the plate shaken to mix and the optical density at 450 nm read in a plate reader. The amount of procollagen in the test samples was calculated from the standard curve values and corrected for the dilution factor and the volume in the well to generate the ng of procollagen in the samples. The amount of procollagen induced by the test materials was compared to the basal media.

YAP/TAZ = test: Nuclear translocation assay to identify activators of YAP/TAZ bioactivity, fibroblasts on fibronectin micro-islands; settings: for Mechano-transduction Activation (% Increase): 20 uM, 2 hours, YAP/TAZ nucleus/cytoplasm ratio normalised to control and LPA; for Induction of mechano-transduction signaling (translocation of cytoplasmic YAP/TAZ into the nucleus), in words: over the vehicle DMSO
Protocol: Cellular localization of YAP can be regulated by the rigidity of the substrate or ECM that cells are attached to, or the degree to which cells can spread on a substrate. Thus in vitro models can be useful to engineer low states of YAP activity.
Briefly, primary human dermal fibroblasts were seeded on microprinted substrate islands (<1000 μm^2) of fibronectin and incubated overnight at 37° C., 5% CO2 in a cell culture incubator. Next, fibroblasts were treated with materials described in Table 1. After the treatment period of 2 hours, cells were fixed and stained: nuclei were stained with Hoechst dye and YAP/TAZ was stained with a mouse antibody to YAP/TAZ (Santa Cruz Biotechnology), followed by the secondary fluorescently tagged antibody (donkey anti-mouse AlexaFluor 488). Microscopic images were acquired and YAP/TAZ fluorescent signal measured in the cytoplasm and nucleus of each cell. The fluorescence intensity measured in the nucleus is divided by the one measured in the cytoplasm to obtain the YAP/TAZ ratio readout as described below Table 1.

[1] = system: CRABPII (cellular retinoic acid binding protein II); test: CRABPII gene expression by TaqMan real time PCR in dermal fibroblasts
Protocol: (§1) Primary human dermal fibroblasts (P3) are plated at 31,579 cells per cm^2 into 6-well 2 kPa hydrogel collagen coated plates in 2 ml 2% fetal bovine serum in Dulbecco's Modified Eagles Media (DMEM) and maintained 24 hours in a cell culture incubator at 5% carbon dioxide. The cells were washed twice with Dulbecco's Phosphate Buffered Saline DPBS) then 1 ml of DMEM supplemented with 0.6% fatty acid free bovine serum albumin (FAF-BSA). The cells were maintained for 24 hours in a cell culture incubator at 5% carbon dioxide. Four hundred ul of media was removed from each well of the plates. Two hundred ul of the YAP active treatments diluted at 10X the desired final concentration plus 1% DMSO were diluted in DMEM supplemented with 0.6% fatty acid free bovine serum albumin. The control wells were treated with two hundred ul of 1% DMSO were diluted in DMEM supplemented with 0.6% fatty acid free bovine serum albumin. Two hundred ul of water-soluble YAP actives diluted at 10X the desired final concentration diluted in DPBS+0.1% FAF-BSA. The controls wells were treated with 200 ul DPBS+0.1% FAF-BSA. The plates were incubated overnight at 37° C. at 5% CO2. In the AM the plates were dosed with the 220 ul of the water-soluble YAP actives in DPBS +0.1% FAF-BSA or the control well with 220 ul DPBS +0.1% FAF-BSA. After 6 hours the media was aspirate from the wells, the cells washed 2X with DPBS and the plate frozen at -80 °C until the RNA was isolated.
700 ul of RLT buffer plus beta-mercaptoethanol was added to each well immediately after removing the plate from the freezer. The plate was placed on an orbital shaker at 500 revolution per minute up for 15 minutes while the buffer thawed and extracted the cells. […] The RNA samples were quantitated on a NanoDrop 800 and quantity access on an Agilent Bio-analyzer. […] The cDNA samples were evaluated for the expression level of select markers using comparative Taqman analysis using 2 ul of the cDNA per reaction. […]
An independent experiment was conducted using cell culture and RNA isolation methods described in Example 2 to further elucidate the retinyl propionate+ORG synergy (as observed in Table 4) by analyzing a well-described marker of a retinoid activity CRABPII (cellular retinoic acid binding protein II). […] Then, 10 ng cDNA samples per reaction were evaluated for the expression level of CRABPII using primers and comparative TaqMan™ Gene Expression Assay and TaqMan™ Fast Advanced Master (FAM) Mix (purchased from Applied Biosystems™) and run in a ViiA™ 7 Real Time PCR System (from Applied Biosystems™). Percent increases in CRABPII expression was calculated by converting the log2fold-change to a percentage increase using the following formula: Percent increase=100*(2^log2FC)-100.

FBN1 = test: mRNA gene expression in dermal fibroblasts on 2 kPa hydrogel (RNA-seq); settings: vs. Vehicle
Protocol: as §1
(§2) The RNA was isolated using the Qiagen RNeasy mini kit following the manufacturer's instruction with the following modifications—
(§3) 700 ul of RLT buffer plus beta-mercaptoethanol was added to each well immediately after removing the plate from the freezer. The plate was placed on an orbital shaker at 500 revolution per minute up for 15 minutes while the buffer thawed and extracted the cells. The cell lysate was transfer to Qiashedders and pass the Qiashedder to disrupt the cells. The recovery lysate was mixed with an equal volume of 70% Ethanol, 30% water. The RNA was purified on the minicolumns including the DNase step to remove DNA contamination. The RNA samples were quantitated on a NanoDrop 800 and quantity access on an Agilent Bio-analyzer. An aliquot of the RNA samples was reverse transcribed in cDNA then diluted to 5 ng/ul of input RNA. The cDNA samples were evaluated for the expression level of select markers using comparative Taqman analysis using 2 ul of the cDNA per reaction. The level of RNA expression was compared using the delta delta Cycle threshold (ddCt) method. Aliquot of the RNAs were also submitted to Lexogen (Vienna, Austria) for RNA-seq analysis.
(§4) Shown in Table 5 is the average percent increase in mRNA expression for genes involved in extracellular matrix production following ORG treatment relative to the vehicle control, along with the Benjamini-Hochberg adjusted p-values (adj.p.value) calculated by converting the average log2fold-change (calculated using DESeq2) to a percentage increase using the following formula: Percent increase=100*(2^log2FC)-100.

COL5A1 = test: as above; settings: vs. Vehicle
Protocol: as §1, §2, §3, §4

COL4A1 = test: as above; settings: vs. Vehicle
Protocol: as §1, §2, §3, §4

FN1 = test: as above; settings: vs. Vehicle
Protocol: as §1, §2, §3, §4

HAS2 = test: as above; settings: vs. Vehicle
Protocol: as §1, §2, §3, §4

COL1A1 = test: as above; settings: vs. Vehicle
Protocol: as §1, §2, §3, §4

ELN = test: as above; settings: vs. Vehicle
Protocol: as §1, §2, §3, §4

COL3A1 = test: as above; settings: vs. Vehicle
Protocol: as §1, §2, §3, §4

[2] = Experiment 1, 50 μM, vehicle control 1933.3
[3] = Experiment 2, 50 μM, vehicle control 2240.5

| Compound | Procollagen (procollagen-I; [2]) [ng/mL] | Procollagen (procollagen-I; [3]) [ng/mL] | Effect on procollagen-I synthesis in human dermal fibroblasts, in words (procollagen-I) | Mechano-transduction Activation (% Increase) (YAP/TAZ) | Induction of mechano-transduction signaling (translocation of cytoplasmic YAP/TAZ into the nucleus), in words (YAP/TAZ) | further results |
| --- | --- | --- | --- | --- | --- | --- |
| CC(C)c1cc2c(cc1O)[C@@]1(C)CC[C@H](O)C(C)(C)[C@@H]1CC2 [Hinokiol] | 1946.1 | 1843.5 | do not exhibit such a pronounced effect | – | – | – |
| CCCCCCCCCCCCCCCCCC(=O)OCC(O)CO (racemic) [1-Stearoyl-rac-glycerol] | – | – | – | 6 +/− 7% | do not induce mechano-transduction | – |
| CCC(=O)OC/C=C(C)/C=C/C=C(C)/C=C/C1=C(C)CCCC1(C)C [retinyl propionate] | – | – | do not exhibit such a pronounced effect | – | – | Effect on CRABPII gene expression, in words [1]: robust increase in CRABPII gene expression; Percent Increase in CRABPII Gene Expression vs Vehicle ([1]; 10 μM): 138%; Procollagen (procollagen-I; Experiment 3, 10 μM, vehicle control 1301.9): 1452.0 ng/mL |
| CCCCCCCC/C=C\CCCCCCCC(=O)OC[C@@H](O)COP(=O)([O-])O.[Na+] [LPA, Lysophosphatidic acid] | – | – | – | 100 +/− 1 ** % | induces mechano-transduction signaling | Procollagen (procollagen-I; Experiment 1, 30 μM, vehicle control 1933.3): 3532.6 ng/mL; Procollagen (procollagen-I; Experiment 2, 30 μM, vehicle control 2240.5): 3381.3 ng/mL |
| CCCCCCCC/C=C\CCCCCCCC(=O)NCC(=O)O [Oleoyl Glycinate] | 2474.9 | – | do not exhibit such a pronounced effect | – | – | – |
| CCCCCCCC/C=C\CCCCCCCC(=O)OCC(O)CO (racemic) [1-oleoyl-rac-glycerol] | – | – | – | 17 +/− 10 ** % | significantly induces mechano-transduction signaling | – |
| oleoyl-rac-glycerol [ORG (Monomuls ®)] | 3084.2 | 3256.8 | promotes the synthesis of procollagen-I | – | – | Effect on CRABPII gene expression, in words [1]: more modest increase; Percent Increase in CRABPII Gene Expression vs Vehicle ([1]; 50 μM): 54%; FBN1 mRNA expression, Percent Increase (FBN1): 12.36%; COL5A1 mRNA expression, Percent Increase (COL5A1): 10.73%; COL4A1 mRNA expression, Percent Increase (COL4A1): 20.36%; FN1 mRNA expression, Percent Increase (FN1): 15.49%; HAS2 mRNA expression, Percent Increase (HAS2): 164.75%; COL1A1 mRNA expression, Percent Increase (COL1A1): 21.16%; ELN mRNA expression, Percent Increase (ELN): 18.49%; COL3A1 mRNA expression, Percent Increase (COL3A1): 15.35%; Procollagen (procollagen-I; Experiment 3, 50 μM, vehicle control 1301.9): 2275.4 ng/mL |
| CCCCCCCCCCCCCCC(=O)OCC(O)CO (racemic) [1-Pentadecanoyl-rac-glycerol] | – | – | – | 25 +/− 26% | do not induce mechano-transduction | – |
| C=CCc1ccc(O)c(-c2cc(CC=C)ccc2O)c1 [Magnolol] | – | 2512.8 | do not exhibit such a pronounced effect | – | – | – |
